The record followed here is patent US7470518B2 (priority 2002, dated 2008).

Molecules are shown by their SMILES. Some results are limits rather than exact numbers.

The subject of one experiment is PC-12 cells. Put plainly: Whole-cell patch clamp current response of PC-12 cells to 1 mM acetylcholine (re-sensitization and scanning experiments). In kind it is cell-based. The note with it: decrease of mean whole-cell current. From the text:
(§1) The patch clamp electrode solution contained 100-mM KCl, 2-mM MgCl2, 1-mM CaCl2, 11-mM EGTA, and 10-mM HEPES; pH was adjusted to 7.2 with KOH.
(§2) In these applications, as discussed above, both the flow rate of the fluids exiting the microchannels and the scan rate of the patch clamped cell are important. […] The width of each channel is 100 μm, the thickness is 50 μm, and the interchannel spacing is 25 μm. The procedure used for fabricating the microchannels and for patch clamping are identical to that described in Example 2 (see above). The patch clamped cell used was a PC-12 cell, which was placed between 10 to 20 micrometers away from the outlets of the microchannels. Channels 1, 3, 5 and 7 were filled with PBS buffer, while channels 2, 4 and 6 were filled with acetylcholine. The flow rate of the fluid streams was 6.8 mm/s.
For orientation: In patch-clamp work, channel activity is measured electrically.

The next experiment concerns the target T1, GABAA receptors (UniProt P28472+P62813).
T1 construct: expressed in transfected cells; host or cells: WSS-1 cells
As to the kind of experiment: Whole-cell patch clamp antagonist dose-response, bicuculline loaded together with GABA, microfluidic scanning. In kind it is cell-based. The note with it: for IC50: with 100 μM GABA. As for the experimental part: Electrophysiology experiments were performed using a commercially available microfluidic device for patch-clamp (Dynaflow 16, Cellectricon AB, Göteborg Sweden). The device has 16 channels of dimensions 50×57 μm (w×h) separated by 22 μm thick walls at the point of exit into the open volume. The volume of the 16 sample reservoirs is 80 μl and the dimensions of the open volume are 30×35 mm. Prior to experiments the device was loaded with different solutions using a micropipette. A 2 mm thick polycarbonate lid was attached over the sample reservoirs using double adhesive tape (3M, Stockholm, Sweden) to create a closed system. The lid was connected to a syringe with PE tubing and a syringe pump (CMA/100, microinjection pump, Carnegie Medicine, Cambridge, UK) was used to compress the air enclosed by the lid to initiate a well defined pressure driven flow in the channels.
Adherent WSS-1 cells were cultivated in Petri dishes for 4-8 days in (DMEM/F12) medium supplemented with antibiotics and antimycotin (0.2%), fetal calf serum (10%), and L-glutamine. Before the experiments, cells were washed and detached in a HEPES-saline buffer (HBS) containing (in mM): 10 HEPES, 140 NaCl, 5 KCl, 1 CaCl2, 1 MgCl2, and 10 D-glucose (pH 7.4). All chemicals used in the cell cultures were from Sigma-Aldrich (Sigma-Aldrich Sweden AB, Stockholm, Sweden).
Patch clamp experiments were carried out in the whole-cell configuration (holding potential −60 mV, sampling frequency 5 kHz filter frequency 1 KHz). The cell bath solution (HBS) contained 10-mM HEPES, 140 -mM NaCl, 5-mM KCl, 1-mM CaCl2, 1-mM MgCl2, 10-mM D-glucose (pH 7.4). The patch clamp electrode solution contained 100-mM KCl, 2-mM MgCl2, 1-mM CaCl2, 11-mM EGTA, and 10-mM HEPES; pH was adjusted to 7.2 with KOH. The experiments were performed at room temperature (18-22° C.).
The competitive antagonist bicuculline was used at the concentrations of 0.01, 0.1, 1, 5, 10, 100 μM. […] As in the experiments with agonist, every second channel was filled with buffer solution for cleansing, and a resting time in buffer of at least three minutes was used before a return scan was made. Dose-response curves were obtained with texp of 100 ms and 3 s. […] FIGS. 34a and b show the results of a patch-clamp experiment. […] These sample channels were interdigitized with buffer channels in every other channel, and the exposure time were set to either 100 ms or 3 s.

The test system of another experiment is PC-12 cell.
Source text: as §1, §2
The channel structure and experimental setup used in Example 3 can be used to carry out dose-response measurements, in which the concentrations of the ligands in each of the ligand streams differ by predetermined amounts. […] In this 7-channel structure, channels 1, 3, 5 and 7 were filled with PBS buffer, whereas channels 2, 4, and 6 were filled with 1 μM, 12 μM, and 200 μM nicotine, respectively. The flow rate used was 3.24 mm/s and the cell-scanning speed was 250 μm/s. The patch-clamped cell was placed between 10 to 20 μm away from the outlet of the microchannel.

T1 sequence (P62813 28-455): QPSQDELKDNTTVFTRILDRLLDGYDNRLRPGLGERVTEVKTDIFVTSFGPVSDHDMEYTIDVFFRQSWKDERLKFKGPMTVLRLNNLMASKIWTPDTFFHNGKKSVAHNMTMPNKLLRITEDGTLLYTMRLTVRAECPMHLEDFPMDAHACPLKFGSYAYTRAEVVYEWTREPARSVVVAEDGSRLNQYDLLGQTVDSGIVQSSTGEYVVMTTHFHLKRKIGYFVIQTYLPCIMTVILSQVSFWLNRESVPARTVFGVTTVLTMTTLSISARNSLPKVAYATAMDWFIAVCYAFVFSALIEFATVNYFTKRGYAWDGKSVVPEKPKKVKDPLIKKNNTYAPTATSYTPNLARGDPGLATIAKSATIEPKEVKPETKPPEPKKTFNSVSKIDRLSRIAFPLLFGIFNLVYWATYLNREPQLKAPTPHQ
T1 sequence (P28472 26-473): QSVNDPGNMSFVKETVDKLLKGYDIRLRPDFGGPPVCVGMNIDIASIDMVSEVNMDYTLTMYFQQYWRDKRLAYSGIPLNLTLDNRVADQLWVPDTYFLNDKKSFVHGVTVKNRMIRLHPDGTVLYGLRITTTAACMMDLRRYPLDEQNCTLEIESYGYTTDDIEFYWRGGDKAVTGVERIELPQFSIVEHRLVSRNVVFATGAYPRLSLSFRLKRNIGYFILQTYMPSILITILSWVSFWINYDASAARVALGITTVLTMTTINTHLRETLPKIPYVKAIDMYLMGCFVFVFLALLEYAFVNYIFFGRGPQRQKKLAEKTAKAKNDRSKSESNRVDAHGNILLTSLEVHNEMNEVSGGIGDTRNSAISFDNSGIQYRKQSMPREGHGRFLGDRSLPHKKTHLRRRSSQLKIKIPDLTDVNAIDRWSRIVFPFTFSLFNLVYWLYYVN
T1 sequence (P18508 39-466 partner): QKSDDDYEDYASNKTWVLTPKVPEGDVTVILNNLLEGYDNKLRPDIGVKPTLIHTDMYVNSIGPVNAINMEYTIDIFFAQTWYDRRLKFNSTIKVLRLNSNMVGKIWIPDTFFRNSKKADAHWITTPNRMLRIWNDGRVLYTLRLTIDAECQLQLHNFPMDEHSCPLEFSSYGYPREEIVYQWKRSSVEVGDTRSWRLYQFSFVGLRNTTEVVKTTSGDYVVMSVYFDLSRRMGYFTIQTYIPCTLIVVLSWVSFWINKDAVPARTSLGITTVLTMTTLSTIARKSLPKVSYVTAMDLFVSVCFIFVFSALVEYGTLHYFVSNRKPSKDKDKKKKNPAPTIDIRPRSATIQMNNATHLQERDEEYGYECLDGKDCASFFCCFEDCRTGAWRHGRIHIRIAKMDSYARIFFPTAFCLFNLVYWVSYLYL

`CC(=O)OCC[N+](C)(C)C` [acetylcholine]: in the experiment with PC-12 cells, the “exposure time to the agonist after which de-sensitization of the current response is observed” value is on record as above 5 s.
For `CN1CCc2cc3c(cc2[C@H]1[C@@H]1OC(=O)c2c1ccc1c2OCO1)OCO3` [bicuculline], the IC20 (commonly the concentration at which the effect reaches the 20% level) at GABAA receptors is around 1 µM. For the same compound, the IC50 (as a rule, the concentration that gives 50% inhibition) was found to be 8.46 ± 1.4 µM on GABAA receptors (IC50, ascending order, texp=3 s); 5.17 ± 0.4 µM at GABAA receptors (IC50, ascending order, texp=100 ms); 1.84 ± 0.4 µM on GABAA receptors (IC50, descending order, texp=3 s); 3.56 ± 0.9 µM against GABAA receptors (IC50, descending order, texp=100 ms).
With `CN1CCCC1c1cccnc1` (centres unmarked) [nicotine], the whole-cell current response entry with PC-12 cell (1 μM nicotine) is given as “barely discernible”. In the experiment on PC-12 cell (12 μM nicotine), the whole-cell current peak entry is listed as “detected with good signal-to-noise ratio”.
